According to patent publication EP2975030B1, “DIHYDROPYRIDAZINE-3,5-DIONE DERIVATIVE” (Chugai Seiyaku Kabushiki Kaisha, priority 2013, dated 2014):

Test system: rat small-intestinal brush border membrane vesicles
Experiment: Inhibitory effect on 33PO4 uptake into rat small-intestinal brush border membrane vesicles (rapid filtration method)
Type: biochemical, Wistar female rat
Conditions: 1 µM test compound; 33PO4 uptake into rat small-intestinal BBMVs, 60 seconds
Protocol: The ^33PO4 transport activity of the small-intestinal BBMVs was determined by the rapid filtration method. […] Then, ice-cold buffer C (110 mM NaCl, 1 mM KH2PO4, and 10 mM HEPES (pH 7.5)) was added to each reaction mixture, which was immediately suction-filtered through a Millipore filter. The filter was washed with buffer C, and each sample was then dissolved in a liquid scintillator. The amount of ^33PO4 uptake into BBMVs was measured using a liquid scintillation counter. […]

Row | SMILES | Rate of uptake inhibition (%) (1 µM)
1 | COCCN(C)CCN(c1ccc(CN2C(=O)C(C(=O)Nc3ccc(C(F)(F)F)cc3-c3cc(C(F)(F)F)ncn3)=C(O)C3(CCCC3)N2C)c(F)c1F)C(C)C [Example 445] | 29
2 | C[C@]12CCCN1N(Cc1cccc(F)c1Cl)C(=O)C(C(=O)Nc1ccc(C(F)(F)F)cc1-c1ccc(C(F)(F)F)nc1)=C2O [Example 201] | 77
3 | COCCOc1cc(NC(=O)C2=C(O)[C@@]3(C)CCCN3N(Cc3cccc(F)c3F)C2=O)c(-c2cccc(OC)c2OC)cc1C(F)(F)F [Example 92] | 81
4 | C[C@]12CCCN1N(Cc1cc(F)cc(F)c1)C(=O)C(C(=O)Nc1cc(F)c(Br)c(F)c1)=C2O [Example 190] | 84
5 | CSc1ccc(-c2cc(C(F)(F)F)ccc2NC(=O)C2=C(O)C(C)(C)N(C)N(Cc3cccc(F)c3F)C2=O)cn1 [Example 310] | 63
6 | CN(CCOCCC(=O)NCC(O)CO)CCOc1ccc(CN2C(=O)C(C(=O)Nc3ccc(C(F)(F)F)cc3-c3cc(C(F)(F)F)ncn3)=C(O)C3(CCCC3)N2C)c(F)c1F (centres unmarked) [Example 426] | 24
7 | CN1N(Cc2ccc(OCCCCOCCCO)c(F)c2F)C(=O)C(C(=O)Nc2ccc(C(F)(F)F)cc2-c2cc(C(F)(F)F)ncn2)=C(O)C12CCCC2 [Example 399] | 42
8 | CN1N(Cc2cccc(F)c2F)C(=O)C(C(=O)Nc2ccc(C(F)(F)F)cc2-c2ncnc(C#N)c2Cl)=C(O)C1(C)C [Example 312] | 74
9 | C[C@]12CCCN1N(Cc1ccccc1C#N)C(=O)C(C(=O)Nc1cc(F)c(Br)c(F)c1)=C2O [Example 218] | 82
10 | CN(C)S(=O)(=O)c1ccc(-c2nc(C(F)(F)F)ccc2NC(=O)C2=C(O)[C@@]3(C)CCCN3N(Cc3cccc(F)c3F)C2=O)cc1 [Example 87] | 84
11 | CN(C[C@H](O)[C@@H](O)[C@H](O)[C@H](O)CO)C(=O)CCOCCOCCOCCOc1ccc(CN2C(=O)C(C(=O)Nc3ccc(C(F)(F)F)cc3-c3cc(C(F)(F)F)ncn3)=C(O)C3(CCCC3)N2C)c(F)c1F [Example 423] | 5
12 | C[C@]12CCCN1N(Cc1cccc(F)c1F)C(=O)C(C(=O)Nc1ccc(Br)cn1)=C2O [Example 78] | 71
13 | Cc1c(-c2cc(C(F)(F)F)ccc2NC(=O)C2=C(O)C3(CCCCC3)N(C)N(Cc3ccc(OCCN4CCOCC4)c(F)c3F)C2=O)ncnc1C(F)(F)F [Example 296] | 17
14 | CC(C)(C)[C@H]1C(O)=C(C(=O)Nc2ccc(Cl)cc2-c2ccc(C(F)(F)F)nc2)C(=O)N(Cc2cccc(F)c2F)N1CC(F)(F)F [Example 247] | 51
15 | Cc1cc(NC(=O)C2=C(O)[C@@H]3CC(C)(C)CN3N(Cc3cccc(F)c3)C2=O)c(C(F)(F)F)o1 [Example 3, (4aS)-1-[(3-Fluorophenyl)methyl]-4-hydroxy-6,6-dimethyl-N-[5-methyl-2-(trifluoromethyl)furan-3-yl]-2-oxo-5,7-dihydro-4aH-pyrrolo[1,2-b]pyridazine-3-carboxamide] | 11
16 | Cc1nc(NC(=O)C2=C(O)C3(CCC3)N(C)N(Cc3cccc(F)c3F)C2=O)ccc1Br [Example 259] | 52
17 | CN1N(Cc2ccc(NCCCN3CCOCC3)c(F)c2F)C(=O)C(C(=O)Nc2ccc(C(F)(F)F)cc2-c2cc(C(F)(F)F)ncn2)=C(O)C12CCCC2 [Example 446] | 31
18 | C[C@]12CCCN1N(Cc1ccc(Cl)cc1)C(=O)C(C(=O)Nc1ccc(C(F)(F)F)cc1-c1cc(C(F)(F)F)ncn1)=C2O [Example 182] | 86

Row | SMILES | Rate of uptake inhibition (%) (1 µM)
19 | C[C@]12CCCN1N(Cc1cccc(F)c1F)C(=O)C(C(=O)Nc1ccc(Br)cc1F)=C2O [Example 75] | 74
20 | CN1[C@@H](C(C)(C)C)C(O)=C(C(=O)Nc2ccc(Br)c(C(F)(F)F)c2)C(=O)N1Cc1cccc(F)c1F [Example 243] | 63
21 | C[C@]12CCCN1N(Cc1ccccc1F)C(=O)C(C(=O)Nc1ccc(C(F)(F)F)cc1-c1cc(C(F)(F)F)ncn1)=C2O [Example 207] | 73
22 | Cc1cc(NC(=O)C2=C(O)[C@@H]3CCCCN3N(Cc3cccc(F)c3)C2=O)c(C(F)(F)F)o1 [Example 16] | 38
23 | CN1N(Cc2ccc(OCCN3CCOCC3)c(F)c2F)C(=O)C(C(=O)Nc2ccc(Cl)cc2-c2cc(C(F)(F)F)ncn2)=C(O)C12CCCCC2 [Example 297] | 36
24 | Cc1c(-c2cc(C(F)(F)F)ccc2NC(=O)C2=C(O)C3(CCCC3)N(C)N(Cc3ccc(OCCN4CCOCC4)c(F)c3F)C2=O)ncnc1C(F)(F)F [Example 290] | 59
25 | CN1N(Cc2ccc(OCCOCCOCCOCCNC(=O)[C@@H](O)[C@H](O)[C@@H](O)[C@@H](O)CO)c(F)c2F)C(=O)C(C(=O)Nc2ccc(C(F)(F)F)cc2-c2cc(C(F)(F)F)ncn2)=C(O)C12CCCC2 [Example 428, 7-[[2,3-Difluoro-4-[2-[2-[2-[2-[[(2S,3R,4S,5S)-2,3,4,5,6-pentahydroxyhexanoyl]amino]ethoxy]ethoxy]ethoxy]ethoxy]phenyl]methyl]-10-hydroxy-6-methyl-8-oxo-N-[4-(trifluoromethyl)-2-[6-(trifluoromethyl)pyrimidin-4-yl]phenyl]-6,7-diazaspiro[4.5]dec-9-ene-9-carboxamide] | 14
26 | C[C@]12CCCN1N(Cc1c(F)cc(C#CCCOC[C@H](O)CO)cc1F)C(=O)C(C(=O)Nc1ccc(C(F)(F)F)cc1-c1ccc(C(F)(F)F)nc1)=C2O [Example 145] | 78
27 | COc1cncc(-c2cc(C(F)(F)F)ccc2NC(=O)C2=C(O)[C@@]3(C)CCCN3N(Cc3cccc(F)c3F)C2=O)c1 [Example 81] | 74
28 | COC(=O)CN(C)CCOc1ccc(CN2C(=O)C(C(=O)Nc3ccc(C(F)(F)F)cc3-c3cc(C(F)(F)F)ncn3)=C(O)C3(CCCC3)N2C)c(F)c1F [Example 368] | 26
29 | CN1N(Cc2ccc(OCCCCCOC[C@H](O)CO)c(F)c2F)C(=O)C(C(=O)Nc2ccc(C(F)(F)F)cc2-c2cc(C(F)(F)F)ncn2)=C(O)C12CCCC2 [Example 394] | 45
30 | CCC1(CC)C(O)=C(C(=O)Nc2ccc(C(F)(F)F)cc2-c2cc(C(F)(F)F)ncn2)C(=O)N(Cc2ccc(OCCN3CCOCC3)c(F)c2F)N1C [Example 291] | 47
31 | CN1N(Cc2ccc(OCCCCOC[C@H](O)CO)c(F)c2F)C(=O)C(C(=O)Nc2ccc(C(F)(F)F)cc2-c2cc(C(F)(F)F)ncn2)=C(O)C12CCCC2 [Example 393] | 45
32 | CN(CCO)CCOc1ccc(CN2C(=O)C(C(=O)Nc3ccc(C(F)(F)F)cc3-c3cc(C(F)(F)F)ncn3)=C(O)C3(CCC3)N2C)c(F)c1F [Example 347] | 28
33 | C[C@]12CCCN1N(Cc1cccc(F)c1F)C(=O)C(C(=O)Nc1ccc(C(F)(F)F)cc1-c1ccc(C(F)(F)F)nc1)=C2O [Example 90] | 91
34 | CN1N(Cc2cccc(F)c2F)C(=O)C(C(=O)Nc2ccc(C(F)(F)F)cc2-c2cc(C#N)ncn2)=C(O)C1(C)C [Example 303] | 42
35 | CN1N(Cc2ccc(OCCN3CCOCC3(C)C)c(F)c2F)C(=O)C(C(=O)Nc2ccc(C(F)(F)F)cc2-c2cc(C(F)(F)F)ncn2)=C(O)C12CCC2 [Example 341] | 64
